Laboratory results reported in patent US20200055817A1 (AbbVie Deutschland GmbH & Co. KG, priority 2016, published 2020).
pEC50: −log10 of the molar value.

Columns and labels:
Type in all cases: cell-based
[1] = target: T1, human EDG8 (S1PR5) receptor (Homo sapiens, UniProt Q9H228); assay: Aequorin assay, agonist potency, CHO-A21-EDG8#12 cells; conditions: agonist mode, aequorin luminescence; read-out: S1P5 EC50 range #
T1 construct: carries the transgenes human EDG8 (S1PR5) receptor (Acession number NP_110387.1); expressed in transfected cells; host or cells: CHO-A21-EDG8#12 (CHO clone co-expressing mitochondrial aequorin and chimaeric Gaqi5)
Protocol: (§1) Agonistic activity was measured as described below.
(§2) Cell clone CHO-A21-Edg1#17 carries the transgenes human EDG1 (S1PR1) receptor (Accession number NP_001391.2), mitochondrially targeted Aequorin (active part corresponds to accession number 1SL8_A) and chimaeric Gaqi5=Gaq modified with the 5 C-terminal amino-acids replaced with those of the Gai protein (DCGLF). CHO-A2-S1P3 Mix is a cell pool ectopically expressing human EDG3 (S1PR3) receptor (Accession number NP_005217.2) mitochondrially targeted Aequorin (active part has a sequence similar to accession number AY601106.1) and GNA16 (Accession number NP_002059.3). Cell clone CHO-A21-EDG8#12 carries the transgenes human EDG8 (S1PR5) receptor (Acession number NP_110387.1), mitochondrially expressed Aequorin (active part corresponds to accession number 1SL8_A) and chimaeric Gaqi5 (Gaq modified to present the 5 last amino-acids of the Gai protein “DCGLF”; see above). Cells are grown to mid-log phase in culture medium (HAM's F12, 10% FBS, 100 IU/mL penicillin, 100 μg/mL streptomycin, 250 μg/mL Zeocin, 400 μg/mL G418). 18 hours prior to frozen cells preparation, the medium is changed to remove the antibiotics.
(§3) 18 hours prior to the test, vials of frozen cells are quickly thawed in a 37° C. water bath, cells are recovered by centrifugation and resuspended in assay buffer (DMEM/HAM's F12 with HEPES, without phenol red+0.1% fatty acid-free BSA). Cells are gently agitated in suspension overnight at RT in presence of 5 μM of Coelenterazine h (Molecular Probes). On the day of the test, cells are diluted to their final working concentrations in assay buffer and agitated in suspension for 1 h at RT. Cells are then placed in the luminescence reader (Hamamatsu Functional Drug Screening System 6000, FDSS6000). During cells incubation, compounds are prepared in 100% DMSO, and subsequently diluted in assay buffer. Compounds are then dispensed in the assay plate (black, clear-bottom, 384-well plate). After binding of agonists to the human S1P receptor the intracellular calcium concentration increases and binding of calcium to the Aequorin/Coelenterazine complex leads to an oxidation reaction of coelenterazine, which results in the production of Aequorin, coelenteramide, CO2 and light (Dmax 469 nm). The luminescent response is dependent on the agonist concentration. For agonist testing, 30 μL of cell suspension are injected on 30 μL of test compound or reference agonist in the assay plate. The resulting emission of light is recorded for 90 seconds using the FDSS6000. Dose response curves with the reference compounds are performed before testing the compounds. S1P is the reference agonist and JTE-013 the reference antagonist for S1P2.
(§4) Luminescence data are integrated over the reading interval for agonist and antagonist modes. To standardize the emission of recorded light (determination of the “100% signal”) across plates and across different experiments, some of the wells contain 100 μM digitonin or a saturating concentration of ATP (20 μM). Plates also contain the reference agonist at a concentration equivalent to the EC80 obtained during the test validation and the EC100. Dose-response data from test compounds were analyzed with XLfit (IDBS) software using nonlinear regression applied to a sigmoidal dose-response model and the following equation: […]

[2] = target: T2, human EDG1 (S1PR1) receptor (Homo sapiens, UniProt P21453); assay: Aequorin assay, agonist potency, CHO-A21-Edg1#17 cells; conditions: agonist mode, aequorin luminescence; read-out: S1P1 EC50
T2 construct: expressed in transfected cells; host or cells: CHO-A21-Edg1#17 (CHO clone co-expressing mitochondrial aequorin and chimaeric Gaqi5)
Protocol: as §1, §2, §3, §4

S1P4 = target: T3, S1P4 (Homo sapiens, UniProt O95977); assay: Aequorin assay, agonist potency, S1P4; conditions: agonist mode, aequorin luminescence
T3 sequence (O95977 1-384): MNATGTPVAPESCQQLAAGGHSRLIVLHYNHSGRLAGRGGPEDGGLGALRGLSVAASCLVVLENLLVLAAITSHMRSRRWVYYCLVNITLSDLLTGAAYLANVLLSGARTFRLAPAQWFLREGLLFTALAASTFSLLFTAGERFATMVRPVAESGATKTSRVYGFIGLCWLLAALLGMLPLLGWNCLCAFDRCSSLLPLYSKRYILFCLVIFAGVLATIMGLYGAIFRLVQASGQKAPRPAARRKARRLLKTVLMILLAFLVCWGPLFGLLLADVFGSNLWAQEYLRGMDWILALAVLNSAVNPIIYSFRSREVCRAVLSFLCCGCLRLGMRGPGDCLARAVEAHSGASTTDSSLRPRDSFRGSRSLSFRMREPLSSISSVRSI
Protocol: as §1, §3, §4

T1 sequence (Q9H228 whole entry): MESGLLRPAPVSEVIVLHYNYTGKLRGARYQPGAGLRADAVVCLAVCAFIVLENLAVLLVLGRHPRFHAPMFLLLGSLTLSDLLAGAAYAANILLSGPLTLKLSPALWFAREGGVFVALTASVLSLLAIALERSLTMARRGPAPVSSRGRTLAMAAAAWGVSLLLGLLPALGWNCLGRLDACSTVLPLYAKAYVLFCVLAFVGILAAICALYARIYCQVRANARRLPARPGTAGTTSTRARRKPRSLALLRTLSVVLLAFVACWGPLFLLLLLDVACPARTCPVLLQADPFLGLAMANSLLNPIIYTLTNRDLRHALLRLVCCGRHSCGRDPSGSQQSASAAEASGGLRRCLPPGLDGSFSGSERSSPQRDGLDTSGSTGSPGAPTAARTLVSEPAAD
T2 sequence (P21453 whole entry): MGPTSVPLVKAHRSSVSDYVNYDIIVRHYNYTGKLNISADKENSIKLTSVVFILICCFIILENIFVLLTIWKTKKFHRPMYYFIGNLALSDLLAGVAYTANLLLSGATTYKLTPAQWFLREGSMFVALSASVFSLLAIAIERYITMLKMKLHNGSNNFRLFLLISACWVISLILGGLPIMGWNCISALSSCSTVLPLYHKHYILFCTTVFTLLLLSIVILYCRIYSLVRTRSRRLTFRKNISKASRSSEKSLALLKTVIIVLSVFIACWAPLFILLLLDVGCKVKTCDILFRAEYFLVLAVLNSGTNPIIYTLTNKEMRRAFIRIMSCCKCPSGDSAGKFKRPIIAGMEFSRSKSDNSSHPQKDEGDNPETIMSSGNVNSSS

Compound: CC1CCC(C#Cc2ccc3c(c2)CC2(C3)CN(C3CC(C(=O)O)C3)C2)CC1 (stereo not shown) [Example 102, 3-(5′-((4-methylcyclohexyl)ethynyl)-1′,3′-dihydrospiro[azetidine-3,2′-inden]-1-yl)cyclobutanecarboxylic acid]
- pEC50 [1]: ≥ 8.00
- pEC50 [2]: < 6.00
- pEC50 (S1P4): > 6.00

Compound: O=C(O)C1(CN2CC3(Cc4ccc(OCCc5ccccc5)cc4C3)C2)CC1 [Example 54, 1-((5′-phenethoxy-1′,3′-dihydrospiro[azetidine-3,2′-inden]-1-yl)methyl)cyclopropanecarboxylic acid]
- pEC50 [1]: 5.00 to 6.00
- pEC50 [2]: < 6.00
- pEC50 (S1P4): > 6.00

Compound: CCc1cccc(Cl)c1COc1ccc2c(c1)CC1(C2)CN(C2CC(C(=O)O)C2)C1 (stereo not shown) [Example 94, 3-(5′-((2-chloro-6-ethylbenzyl)oxy)-1′,3′-dihydrospiro[azetidine-3,2′-inden]-1-yl)cyclobutanecarboxylic acid]
- pEC50 [1]: ≥ 8.00
- pEC50 [2]: > 6.00
- pEC50 (S1P4): > 6.00

Compound: O=C(O)CN1CC2(Cc3ccc(OC4CCc5ccccc54)cc3C2)C1 (stereo not shown) [Example 66, 2-(5′-((2,3-dihydro-1H-inden-1-yl)oxy)-1′,3′-dihydrospiro[azetidine-3,2′-inden]-1-yl)acetic acid]
- pEC50 [1]: ≥ 8.00
- pEC50 [2]: < 6.00
- pEC50 (S1P4): > 6.00

Compound: COc1ccc(COc2ccc3c(c2)CC2(C3)CN(CC3(C(=O)O)CC3)C2)cc1 [Example 139, 1-((5′-((4-methoxybenzyl)oxy)-1′,3′-dihydrospiro[azetidine-3,2′-inden]-1-yl)methyl)cyclopropanecarboxylic acid]
- pEC50 [1]: 5.00 to 6.00
- pEC50 [2]: < 6.00
- pEC50 (S1P4): < 6.00

Compound: COc1ccc(C#Cc2ccc3c(c2)CC2(C3)CN(CC3(C(=O)O)CC3)C2)c(C)c1 [Example 118, 1-((5′-((4-methoxy-2-methylphenyl)ethynyl)-1′,3′-dihydrospiro[azetidine-3,2′-inden]-1-yl)methyl)cyclopropanecarboxylic acid]
- pEC50 [1]: 5.00 to 6.00
- pEC50 [2]: < 6.00
- pEC50 (S1P4): > 6.00

Compound: O=C(O)C1(CN2CC3(Cc4ccc(OCc5ccccc5F)cc4C3)C2)CC1 [Example 140, 1-((5′-((2-fluorobenzyl)oxy)-1′,3′-dihydrospiro[azetidine-3,2′-inden]-1-yl)methyl)cyclopropanecarboxylic acid]
- pEC50 [1]: 5.00 to 6.00
- pEC50 [2]: < 6.00
- pEC50 (S1P4): < 6.00

Compound: CCOc1cc(F)c(COc2ccc3c(c2)CC2(C3)CN(C3CC(C(=O)O)C3)C2)c(F)c1 (stereo not shown) [Example 85, 3-(5′-((4-ethoxy-2,6-difluorobenzyl)oxy)-1′,3′-dihydrospiro[azetidine-3,2′-inden]-1-yl)cyclobutanecarboxylic acid]
- pEC50 [1]: 5.00 to 6.00
- pEC50 [2]: < 6.00
- pEC50 (S1P4): > 6.00

Compound: COc1ccc(C#Cc2ccc3c(c2)CC2(C3)CN(C3CC(C(=O)O)C3)C2)c(C)c1 (stereo not shown) [Example 101, 3-(5′-((4-methoxy-2-methylphenyl)ethynyl)-1′,3′-dihydrospiro[azetidine-3,2′-inden]-1-yl)cyclobutanecarboxylic acid]
- pEC50 [1]: 5.00 to 6.00
- pEC50 [2]: < 6.00
- pEC50 (S1P4): > 6.00

Compound: O=C(O)CN1CC2(Cc3ccc(OCc4c(F)cccc4Cl)cc3C2)C1 [Example 18, 2,2,2-trifluoroacetic acid compound with 2-(5′-((2-chloro-6-fluorobenzyl)oxy)-1′,3′-dihydrospiro[azetidine-3,2′-inden]-1-yl)acetic acid (1:1)]
- pEC50 [1]: ≥ 8.00
- pEC50 [2]: < 6.00
- pEC50 (S1P4): > 6.00

Compound: O=C(O)C1(CN2CC3(Cc4ccc(OCCc5cccc(Cl)c5)cc4C3)C2)CC1 [Example 57, 1-((5′-(3-chlorophenethoxy)-1′,3′-dihydrospiro[azetidine-3,2′-inden]-1-yl)methyl)cyclopropanecarboxylic acid]
- pEC50 [1]: 6.00 to 7.00
- pEC50 [2]: > 6.00
- pEC50 (S1P4): > 6.00

Compound: O=C(O)C1(CN2CC3(Cc4ccc(OCc5ccccc5C(F)(F)F)cc4C3)C2)CC1 [Example 41, 1-((5′-((2-(trifluoromethyl)benzyl)oxy)-1′,3′-dihydrospiro[azetidine-3,2′-inden]-1-yl)methyl)cyclopropanecarboxylic acid compound with 2,2,2-trifluoroacetic acid (1:1)]
- pEC50 [1]: 5.00 to 6.00
- pEC50 [2]: < 6.00
- pEC50 (S1P4): > 6.00

Compound: O=C(O)CN1CC2(Cc3ccc(OCc4cc(F)ccc4C(F)(F)F)cc3C2)C1 [Example 27, 2-(5′-((5-fluoro-2-(trifluoromethyl)benzyl)oxy)-1′,3′-dihydrospiro[azetidine-3,2′-inden]-1-yl)acetic acid]
- pEC50 [1]: ≥ 8.00
- pEC50 [2]: < 6.00
- pEC50 (S1P4): > 6.00

Compound: COc1cccc(Cl)c1COc1ccc2c(c1)CC1(C2)CN(CC(=O)O)C1 [Example 9, 2,2,2-trifluoroacetic acid compound with 2-(5′-((2-chloro-6-methoxybenzyl)oxy)-1′,3′-dihydrospiro[azetidine-3,2′-inden]-1-yl)acetic acid (1:1)]
- pEC50 [1]: 6.00 to 7.00
- pEC50 [2]: < 6.00
- pEC50 (S1P4): < 6.00

Compound: O=C(O)C1(CN2CC3(Cc4ccc(OCc5c(Cl)cccc5C(F)(F)F)cc4C3)C2)CC1 [Example 47, 1-((5′-((2-chloro-6-(trifluoromethyl)benzyl)oxy)-1′,3′-dihydrospiro[azetidine-3,2′-inden]-1-yl)methyl)cyclopropanecarboxylic acid Compound with 2,2,2-trifluoroacetic acid (1:1)]
- pEC50 [1]: ≥ 8.00
- pEC50 [2]: < 6.00
- pEC50 (S1P4): > 6.00

Compound: CC(Oc1ccc(C#Cc2ccc3c(c2)CC2(C3)CN(CC(=O)O)C2)cn1)C(F)(F)F (stereo not shown) [Example 79, 2-(5′-((6-((1,1,1-trifluoropropan-2-yl)oxy)pyridin-3-yl)ethynyl)-1′,3′-dihydrospiro[azetidine-3,2′-inden]-1-yl)acetic acid]
- pEC50 [1]: ≥ 8.00
- pEC50 [2]: > 6.00
- pEC50 (S1P4): > 6.00

Compound: CCOc1ccc(C#Cc2ccc3c(c2)CC2(C3)CN(CC3(C(=O)O)CC3)C2)cc1 [Example 112, 1-((5′-((4-ethoxyphenyl)ethynyl)-1′,3′-dihydrospiro[azetidine-3,2′-inden]-1-yl)methyl)cyclopropanecarboxylic acid]
- pEC50 [1]: 6.00 to 7.00
- pEC50 [2]: < 6.00
- pEC50 (S1P4): < 6.00

Compound: O=C(O)C1(CN2CC3(Cc4ccc(OCc5ccc(OCC6CC6)cc5)cc4C3)C2)CC1 [Example 128, 1-((5′-((4-(cyclopropylmethoxy)benzyl)oxy)-1′,3′-dihydrospiro[azetidine-3,2′-inden]-1-yl)methyl)cyclopropanecarboxylic acid]
- pEC50 [1]: 5.00 to 6.00
- pEC50 [2]: < 6.00
- pEC50 (S1P4): < 6.00

Compound: CCOc1ccc(C#Cc2ccc3c(c2)CC2(C3)CN(CC3(C(=O)O)CC3)C2)cc1 [Example 1, 1-((5′-((4-ethoxyphenyl)ethynyl)-1′,3′-dihydrospiro[azetidine-3,2′-inden]-1-yl)methyl)cyclopropanecarboxylic acid compound with 2,2,2-trifluoroacetic acid (1:1)]
- pEC50 [1]: 5.00 to 6.00
